What all share (experiment): Kinase selectivity, scanMAX Kinase assay panel (DiscoverX), % control at 1 uM
What all share (type): binding

The target in test [1] is T1, scanMAX Kinase assay panel (Homo sapiens, UniProt P00519, F317L).
T1 construct: purchased DiscoverX
The note with it: 1 uM, read-out: Percent Control (%). The procedure, abridged:
(§1)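 A single concentration of 1 uM, in DMSO, is applied across the kinase panel. Activity against an individual enzyme is assigned where % control is less than 35.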

For test [2], the target named is T2, scanMAX Kinase assay panel (Homo sapiens, UniProt Q16539).
T2 construct: purchased DiscoverX
The following applies: p38-alpha; 1 uM; read-out: Percent Control (%). The method, boiled down:
as §1

Test [3] addresses T3, scanMAX Kinase assay panel (Homo sapiens, UniProt O94806).
T3 construct: purchased DiscoverX
T3 sequence (O94806 1-890): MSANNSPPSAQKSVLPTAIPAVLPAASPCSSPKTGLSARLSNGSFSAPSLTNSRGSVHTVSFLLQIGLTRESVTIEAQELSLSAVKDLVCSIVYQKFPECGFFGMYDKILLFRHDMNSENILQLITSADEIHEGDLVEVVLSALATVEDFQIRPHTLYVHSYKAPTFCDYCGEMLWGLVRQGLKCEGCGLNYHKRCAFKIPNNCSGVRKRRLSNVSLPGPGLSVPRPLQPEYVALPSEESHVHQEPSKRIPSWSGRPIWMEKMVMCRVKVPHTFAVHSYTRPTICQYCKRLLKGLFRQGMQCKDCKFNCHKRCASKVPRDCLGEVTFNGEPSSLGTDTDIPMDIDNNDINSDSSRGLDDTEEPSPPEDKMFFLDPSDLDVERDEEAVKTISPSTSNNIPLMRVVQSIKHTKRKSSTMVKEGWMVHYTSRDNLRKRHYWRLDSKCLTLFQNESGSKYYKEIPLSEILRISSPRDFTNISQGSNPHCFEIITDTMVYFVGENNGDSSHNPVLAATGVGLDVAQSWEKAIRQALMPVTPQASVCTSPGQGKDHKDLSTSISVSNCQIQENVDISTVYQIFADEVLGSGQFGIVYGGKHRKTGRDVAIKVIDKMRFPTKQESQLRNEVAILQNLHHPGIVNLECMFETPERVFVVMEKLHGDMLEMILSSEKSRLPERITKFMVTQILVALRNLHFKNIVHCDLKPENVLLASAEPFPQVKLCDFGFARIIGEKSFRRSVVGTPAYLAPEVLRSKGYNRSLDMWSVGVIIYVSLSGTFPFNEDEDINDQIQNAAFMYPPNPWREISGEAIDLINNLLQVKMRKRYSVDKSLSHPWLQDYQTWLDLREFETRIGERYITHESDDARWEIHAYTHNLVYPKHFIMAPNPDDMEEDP
The note with it: PRKD3; 1 uM; read-out: Percent Control (%). The method, boiled down:
as §1

The target of test [4] is T4, scanMAX Kinase assay panel (Homo sapiens, UniProt P10721, A829P).
T4 construct: purchased DiscoverX
The following applies: KIT (A829P); 1 uM; read-out: Percent Control (%). The procedure, abridged:
as §1

The target of test [5] is T5, scanMAX Kinase assay panel (Homo sapiens, UniProt P17612).
T5 construct: purchased DiscoverX
The note with it: PKAC-alpha; 1 uM; read-out: Percent Control (%). The procedure, abridged: as §1

In test [6] the target is T6, scanMAX Kinase assay panel (Homo sapiens, UniProt Q8WXR4).
T6 construct: purchased DiscoverX
T6 sequence (Q8WXR4 1-1341): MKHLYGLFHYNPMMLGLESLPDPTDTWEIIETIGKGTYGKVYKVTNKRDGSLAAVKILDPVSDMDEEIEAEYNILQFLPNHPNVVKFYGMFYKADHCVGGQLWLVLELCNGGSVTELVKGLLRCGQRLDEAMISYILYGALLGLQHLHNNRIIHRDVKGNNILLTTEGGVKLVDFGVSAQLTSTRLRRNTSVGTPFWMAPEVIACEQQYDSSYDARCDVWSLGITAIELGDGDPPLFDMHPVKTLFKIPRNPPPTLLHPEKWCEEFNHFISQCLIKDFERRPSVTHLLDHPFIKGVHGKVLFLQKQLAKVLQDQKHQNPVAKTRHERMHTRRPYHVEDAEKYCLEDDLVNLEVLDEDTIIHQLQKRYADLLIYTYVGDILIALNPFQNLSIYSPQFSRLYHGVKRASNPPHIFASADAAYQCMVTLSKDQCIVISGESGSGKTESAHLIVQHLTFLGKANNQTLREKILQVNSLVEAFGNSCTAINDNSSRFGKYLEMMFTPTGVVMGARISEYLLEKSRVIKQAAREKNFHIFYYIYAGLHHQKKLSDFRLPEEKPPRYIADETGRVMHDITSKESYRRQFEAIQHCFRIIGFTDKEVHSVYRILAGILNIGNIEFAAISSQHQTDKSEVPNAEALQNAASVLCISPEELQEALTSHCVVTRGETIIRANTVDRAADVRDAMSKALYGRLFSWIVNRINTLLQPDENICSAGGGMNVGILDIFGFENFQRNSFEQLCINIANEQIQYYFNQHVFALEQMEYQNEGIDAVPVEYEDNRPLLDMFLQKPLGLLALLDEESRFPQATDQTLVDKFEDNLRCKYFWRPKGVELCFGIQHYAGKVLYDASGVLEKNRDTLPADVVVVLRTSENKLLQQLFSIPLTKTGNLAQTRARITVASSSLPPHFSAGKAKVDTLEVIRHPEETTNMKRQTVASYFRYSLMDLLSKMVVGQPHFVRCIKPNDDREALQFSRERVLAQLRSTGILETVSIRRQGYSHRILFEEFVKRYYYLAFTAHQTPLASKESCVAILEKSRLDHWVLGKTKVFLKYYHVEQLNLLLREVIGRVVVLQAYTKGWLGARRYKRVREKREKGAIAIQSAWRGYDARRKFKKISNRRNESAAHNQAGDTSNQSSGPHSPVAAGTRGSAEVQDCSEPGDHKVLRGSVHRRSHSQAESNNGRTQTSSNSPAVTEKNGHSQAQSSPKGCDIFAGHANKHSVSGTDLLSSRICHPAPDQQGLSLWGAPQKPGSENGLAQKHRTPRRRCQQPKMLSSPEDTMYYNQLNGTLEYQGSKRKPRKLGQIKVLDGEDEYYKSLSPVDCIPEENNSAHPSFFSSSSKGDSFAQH
The note with it: MYO3B; 1 uM; read-out: Percent Control (%). The method, boiled down:
as §1

The target of test [7] is T7, scanMAX Kinase assay panel (Homo sapiens, UniProt Q15375).
T7 construct: purchased DiscoverX
The following applies: EPHA7; 1 uM; read-out: Percent Control (%). The procedure, abridged: as §1

Results on three compounds are retold here after patent US10870647B2, “Imidazopyridine derivative, method for preparing same, and pharmaceutical composition containing same as active ingredient for preventing or treating cancer” (DAEGU-GYEONGBUK MEDICAL INNOVATION FOUNDATION, priority 2016, dated 2020).

The structures appear in SMILES notation. Read-outs that look alike come from different tables or passages of the source.

T2 sequence (Q16539 whole entry): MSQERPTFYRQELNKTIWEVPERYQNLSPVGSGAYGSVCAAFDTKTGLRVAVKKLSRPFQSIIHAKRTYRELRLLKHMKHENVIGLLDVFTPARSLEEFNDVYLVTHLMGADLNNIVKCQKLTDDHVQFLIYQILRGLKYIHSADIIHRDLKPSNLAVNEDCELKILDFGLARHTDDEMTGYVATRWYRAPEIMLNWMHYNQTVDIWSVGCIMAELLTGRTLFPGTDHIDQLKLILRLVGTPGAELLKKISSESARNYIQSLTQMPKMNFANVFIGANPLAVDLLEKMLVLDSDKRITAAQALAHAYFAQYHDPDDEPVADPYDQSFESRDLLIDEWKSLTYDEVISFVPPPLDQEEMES
T7 sequence (Q15375 28-998): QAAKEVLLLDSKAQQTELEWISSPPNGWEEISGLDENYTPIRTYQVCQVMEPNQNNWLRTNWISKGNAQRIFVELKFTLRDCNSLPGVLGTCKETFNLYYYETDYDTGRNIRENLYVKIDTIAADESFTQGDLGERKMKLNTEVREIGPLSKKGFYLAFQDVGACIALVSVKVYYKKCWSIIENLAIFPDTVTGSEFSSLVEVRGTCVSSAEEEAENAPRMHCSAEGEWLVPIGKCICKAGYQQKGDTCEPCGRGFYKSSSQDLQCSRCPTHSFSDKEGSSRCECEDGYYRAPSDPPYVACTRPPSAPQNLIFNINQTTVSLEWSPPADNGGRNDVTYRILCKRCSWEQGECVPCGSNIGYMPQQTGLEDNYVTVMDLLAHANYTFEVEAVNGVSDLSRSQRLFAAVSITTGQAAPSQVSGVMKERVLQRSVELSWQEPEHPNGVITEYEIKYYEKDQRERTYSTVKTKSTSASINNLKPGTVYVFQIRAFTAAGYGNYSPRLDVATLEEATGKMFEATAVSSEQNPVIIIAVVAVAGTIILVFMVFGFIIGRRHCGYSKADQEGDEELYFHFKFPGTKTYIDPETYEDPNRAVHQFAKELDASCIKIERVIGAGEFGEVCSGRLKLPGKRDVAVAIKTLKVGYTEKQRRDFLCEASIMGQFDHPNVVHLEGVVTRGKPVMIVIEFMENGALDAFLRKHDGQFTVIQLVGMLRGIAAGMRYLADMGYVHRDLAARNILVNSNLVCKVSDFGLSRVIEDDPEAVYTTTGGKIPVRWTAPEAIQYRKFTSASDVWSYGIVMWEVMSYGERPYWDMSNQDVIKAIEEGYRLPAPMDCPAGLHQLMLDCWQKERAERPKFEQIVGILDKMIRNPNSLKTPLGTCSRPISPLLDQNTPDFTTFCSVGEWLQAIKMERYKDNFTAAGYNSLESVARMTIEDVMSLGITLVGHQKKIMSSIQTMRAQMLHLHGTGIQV
T4 sequence (P10721 26-976 A829P): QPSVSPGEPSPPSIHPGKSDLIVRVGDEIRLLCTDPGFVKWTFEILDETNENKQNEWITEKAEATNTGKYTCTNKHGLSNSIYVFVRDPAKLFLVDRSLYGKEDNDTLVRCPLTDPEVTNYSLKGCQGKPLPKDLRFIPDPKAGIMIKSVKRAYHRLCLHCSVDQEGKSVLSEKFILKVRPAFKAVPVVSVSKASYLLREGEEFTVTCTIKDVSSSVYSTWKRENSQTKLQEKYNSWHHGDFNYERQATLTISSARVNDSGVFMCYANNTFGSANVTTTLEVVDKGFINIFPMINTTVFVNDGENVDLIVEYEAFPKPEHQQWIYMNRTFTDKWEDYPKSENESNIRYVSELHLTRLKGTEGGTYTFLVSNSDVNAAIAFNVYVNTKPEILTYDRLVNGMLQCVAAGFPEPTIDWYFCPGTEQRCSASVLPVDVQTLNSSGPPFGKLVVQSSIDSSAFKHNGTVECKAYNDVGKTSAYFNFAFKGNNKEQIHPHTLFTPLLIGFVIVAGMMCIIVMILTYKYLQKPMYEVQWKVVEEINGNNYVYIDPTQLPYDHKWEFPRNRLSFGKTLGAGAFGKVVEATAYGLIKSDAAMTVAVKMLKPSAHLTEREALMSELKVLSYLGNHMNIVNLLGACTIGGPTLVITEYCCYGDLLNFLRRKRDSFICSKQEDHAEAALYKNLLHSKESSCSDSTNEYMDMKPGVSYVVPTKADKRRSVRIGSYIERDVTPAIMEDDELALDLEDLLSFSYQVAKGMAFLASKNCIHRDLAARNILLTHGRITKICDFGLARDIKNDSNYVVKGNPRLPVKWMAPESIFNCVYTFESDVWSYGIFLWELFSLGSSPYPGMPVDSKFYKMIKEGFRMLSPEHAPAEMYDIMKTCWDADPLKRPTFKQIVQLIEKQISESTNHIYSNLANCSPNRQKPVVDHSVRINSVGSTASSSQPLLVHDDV
T1 sequence (P00519 whole entry F317L): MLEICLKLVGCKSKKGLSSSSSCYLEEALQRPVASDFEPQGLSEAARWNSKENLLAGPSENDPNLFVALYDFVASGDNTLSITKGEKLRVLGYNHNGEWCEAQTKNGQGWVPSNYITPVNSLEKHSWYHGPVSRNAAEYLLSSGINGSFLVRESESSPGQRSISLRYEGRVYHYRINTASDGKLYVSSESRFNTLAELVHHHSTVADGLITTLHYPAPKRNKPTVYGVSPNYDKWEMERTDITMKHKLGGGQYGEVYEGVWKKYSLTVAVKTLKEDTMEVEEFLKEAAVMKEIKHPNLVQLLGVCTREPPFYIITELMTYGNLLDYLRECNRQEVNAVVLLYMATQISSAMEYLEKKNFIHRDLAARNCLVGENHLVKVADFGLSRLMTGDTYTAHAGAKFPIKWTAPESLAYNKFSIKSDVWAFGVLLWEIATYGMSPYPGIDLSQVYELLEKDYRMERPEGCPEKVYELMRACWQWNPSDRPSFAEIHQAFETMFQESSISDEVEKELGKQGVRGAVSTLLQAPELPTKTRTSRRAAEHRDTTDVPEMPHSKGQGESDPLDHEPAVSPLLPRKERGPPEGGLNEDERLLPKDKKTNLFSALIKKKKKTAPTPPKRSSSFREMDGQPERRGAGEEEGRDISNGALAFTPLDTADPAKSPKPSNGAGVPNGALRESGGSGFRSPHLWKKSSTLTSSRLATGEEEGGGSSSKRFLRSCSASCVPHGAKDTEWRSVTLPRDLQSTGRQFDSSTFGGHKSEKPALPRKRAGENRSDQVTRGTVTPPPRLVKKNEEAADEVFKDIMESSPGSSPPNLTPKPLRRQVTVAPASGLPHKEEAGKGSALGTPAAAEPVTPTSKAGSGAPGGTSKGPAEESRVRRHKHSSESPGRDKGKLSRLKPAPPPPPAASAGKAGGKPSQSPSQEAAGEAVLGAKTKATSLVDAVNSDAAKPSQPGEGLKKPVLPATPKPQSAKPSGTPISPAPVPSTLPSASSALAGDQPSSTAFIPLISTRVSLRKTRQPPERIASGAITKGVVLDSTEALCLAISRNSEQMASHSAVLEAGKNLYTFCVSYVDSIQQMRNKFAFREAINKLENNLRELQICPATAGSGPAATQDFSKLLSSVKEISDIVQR

On to `Cc1ccc(C(=O)Nc2ccc(CN3CCN(C)CC3)c(C(F)(F)F)c2)cc1C#Cc1cnc2c(Nc3cnn(C)c3)cccn12` [Example 1, 4-methyl-3-((8-((1-methyl-1H-pyrazol-4-yl)amino)imidazo[1,2-a]pyridin-3-yl)ethynyl)-N-(4-((4-methylpiperazin-1-yl)methyl)-3-(trifluoromethyl)phenyl)benzamide], for which the remaining binding at 1 µM in test [1] (ABL1 (F317L)-nonphosphorylated) worked out at 9%; in test [1] (ABL1 (F317L)-phosphorylated) it was 2%; in test [2], 0%; in test [3] it was 43%; in test [4] it was 4%; in test [5], 35%. For the same compound, the values for the remaining binding at 1 µM in test [6] and in test [7] were 35% and 5%, respectively.
In the case of `Cc1cn(-c2cc(NC(=O)c3ccc(C)c(C#Cc4cnc5c(Nc6cnn(C)c6)cccn45)c3)cc(C(F)(F)F)c2)cn1` [Example 12, 4-methyl-N-(3-(4-methyl-1H-imidazol-1-yl)-5-(trifluoromethyl)phenyl)-3-((8-((1-methyl-1H-pyrazol-4-yl)amino)imidazo[1,2-a]pyridin-3-yl)ethynyl)benzamide], the remaining binding at 1 µM stood at 3% in test [1] (ABL1 (F317L)-nonphosphorylated); 6% in test [1] (ABL1 (F317L)-phosphorylated); 7% in test [2]; 96% in test [3]; 29% in test [4]; 93% in test [5]. For the same compound, the remaining binding at 1 µM was 81% in test [6] and 69% in test [7].
As to `Cc1ccc(NC(=O)C2(C(=O)Nc3ccc(F)cc3)CC2)cc1C#Cc1cnc2c(Nc3cnn(C(C)C)c3)cccn12` [Example 78], the remaining binding at 1 µM amounted to 16% in test [1] (ABL1 (F317L)-nonphosphorylated); 85% in test [1] (ABL1 (F317L)-phosphorylated); 14% in test [2]; 88% in test [3]; 21% in test [4]; 100% in test [5]. The remaining binding at 1 µM in test [6] turned out to be 92%; in test [7], 100%.
